In US8399684B2, “Sulfonamide-based organocatalysts and method for their use” (State of Oregon acting by and through the State Board of …, priority 2007, dated 2013):
≈ marks a conversion by molar mass, not a printed value.

Columns and labels:
[1] = Solubility of catalysts screened in methylene chloride (dichloromethane); assay type: physicochemical
Text: In order to explore the effects of solvent polarity, the solubility of certain catalysts in methylene chloride was screened. Disclosed catalysts typically have a solubility of at least 10 milligrams/milliliter in dichloromethane, and typically at least 50 milligrams/milliliter in dichloromethane.
The absence of a significant non-polar region to the molecule may be the origin of this poor solubility. […] Sulfonamides are ideal choices for proline mimetics as their pKa has been documented to nicely match that of proline.
Ester-based catalysts according to the present disclosure also have markedly better solubilities than previously known compounds.

[2] = Solubility of catalysts under the intramolecular Michael addition conditions; assay type: physicochemical; conditions: chlorinated reaction solvent, incl. lower temperatures; compared with tetrazole 11 and sulfonamides 12-14
Text: Proline sulfonamides were tried next as potential organocatalysts. While these ligands have shown promise in certain organocatalyzed reactions, they previously have proven problematic in facilitating Michael addition processes. Proline sulfonamides performed well, providing improved enantiomeric excess (e.e.) at room temperature (Entries 6-8). […] This sulfonamide 15 is readily accessible from the commercially available para-dodecylsulfonylchloride (16) and Cbz-protected proline 18 in 3 steps (Scheme 16).

- solubility in dichloromethane [1]: 300 mg/mL (≈ 710 mM)
- solubility (in words) [2]: greatly improved solubility properties
Structure (SMILES): CCCCCCCCCCCCc1ccc(S(=O)(=O)NC(=O)C2CCCN2)cc1 (centres unmarked) [Sulfonamide 15, N-(p-dodecylphenylsulfonyl)-2-Pyrrolidinecarboxamide]
